The results in this text go back to article PMC5746060, “General and Modular Strategy for Designing Potent, Selective, and Pharmacologically Compliant Inhibitors of Rhomboid Proteases” (Cell Chemical Biology, 2017).

The experiment deals with T1, Escherichia coli rhomboid GlpG (Escherichia coli, UniProt P09391).
T1 construct: made in house; host or cells: E. coli C41(DE3)
Kind of experiment: in vitro GlpG inhibition assay with fluorogenic transmembrane peptide substrate (apparent IC50). The experiment is classed as biochemical. The following applies: for IC50: 1 hr preincubation, 10 μM fluorogenic substrate KSp35, 0.05% (w/v) DDM; for fold decrease in potency compared with the parent compound 9: N-terminal truncation series. An excerpt:
To gain insight into these preferences and their possible interactions, we have generated tetra- and pentapeptidyl chloromethylketones (CMK or cmk henceforth) harboring amino acids preferred in positions P5 to P1 by the Escherichia coli rhomboid GlpG (GlpG henceforth), using the sequence background of the Providencia TatA ([Stevenson et al., 2007]), represented by the parent compound Ac-IATA-cmk. We measured the inhibitory properties of this series of compounds using a newly developed in vitro assay employing a fluorogenic transmembrane peptide substrate ([Ticha et al., 2017]) that faithfully represents a native rhomboid substrate.
Figure 1 The Potency of Substrate-Derived Inhibitors Can be Improved by Modifying the Amino acid Sequence of the P5 to P1 Region (A) The parent inhibitor Ac-IATA-cmk was modified by introducing strongly preferred amino acids ([Zoll et al., 2014]) into the P4, P3, P2, and P5 positions to yield the listed compounds. Their apparent IC50 values were measured with 1 hr preincubation using 10 μM fluorogenic substrate KSp35 and 0.05% (w/v) DDM. The reported values are best-fit means with SD representative of 2–3 measurements. (B) The sequence-optimized peptidyl chloromethylketones were soaked into the native crystals of GlpG and structures of the complexes were solved by X-ray diffraction (for statistics, see Table S1). […] Note that in the Ac-RVRHA-cmk structure (right), the side chain of the Arg residue in the P5 position of the inhibitor has not been modeled due to poor or missing electron density peaks. (C) Interactions of RVRHA-cmk with GlpG were analyzed by Ligplot+ ([Laskowski and Swindells, 2011]). Ligands are shown as thick sticks with carbons in green, proteins as thin sticks with carbons in gray, hydrogen bonds as yellow dashed lines, and amino acids involved in van der Waals contacts are highlighted as transparent surfaces. The inhibitor forms covalent bonds with S201 and H254 via the chloromethylketone warhead, and it hydrogen bonds with the backbone of residues 196–198 from the L3 loop and residues 248–250 from the L5 loop. van der Waals contacts with the inhibitor are formed by the residues from the L3 loop of GlpG, by S193 and Q189 from TMD3, and by F146 and M120 from the L1 loop that pack against the Val side chain of the P4 position of the inhibitor, as observed previously ([Zoll et al., 2014]). (D) The conformations of peptide inhibitors bound to the active site of GlpG were compared by performing structural alignment of the complexes of VRHAcmk (PDB: 5MT7), RVRHAcmk (PDB: 5MT8), IATAcmk (PDB: 4QO2), and VRMAcho (PDB: 5F5B) in PyMOL ([Schrodinger, 2012]). […] The backbone of the ligands in all complexes has virtually identical conformation with the exception of the distortion of the oxyanion by the chloromethylketone, and the biggest differences are found in the conformation of the P2 side chain, which is not surprising, because almost any side chain can be accommodated in this position ([Zoll et al., 2014]). TEXT PRINTED IN THE PICTURE: (A) AcIATAcmk: IC50 (μM): 213 | (A) AcVATAcmk: IC50 (μM): 450 | (A) AcIAHAcmk: IC50 (μM): 200 | (A) AcIRTAcmk: IC50 (μM): 84 | (A) AcVRHAcmk: IC50 (μM): 27 | (A) AcRVRHAcmk: IC50 (μM): 8
Figure 2 A Screen of Electrophilic Warheads for the Inhibition of Rhomboid Proteases The optimized parent sequence Ac-RVRHA was linked to electrophilic warheads commonly used for targeting serine proteases (reviewed in [Hedstrom, 2002], [Walker and Lynas, 2001]). The apparent IC50 values of the compounds were measured in 0.05% DDM using 10 μM substrate KSp35 ([Ticha et al., 2017]) with 1 hr preincubation. Given are the mean values of 2–3 measurements. […]

Non-standard residues stand in square brackets, D forms with d. Residues, ends and D or L forms follow the SMILES beside them. ξ: configuration not given here. *: point of attachment. X3 = C[C@H](N*)C(=O)NS(C)(=O)=O; X4 = C[C@H](N*)C(=O)c1nccs1; boroAla = C[C@H](N*)B(O)O; ξA = CC(N)C(=O)O; CF3 = FC(F)(F)*; CH2Cl = ClC*

T1 sequence (P09391 whole entry): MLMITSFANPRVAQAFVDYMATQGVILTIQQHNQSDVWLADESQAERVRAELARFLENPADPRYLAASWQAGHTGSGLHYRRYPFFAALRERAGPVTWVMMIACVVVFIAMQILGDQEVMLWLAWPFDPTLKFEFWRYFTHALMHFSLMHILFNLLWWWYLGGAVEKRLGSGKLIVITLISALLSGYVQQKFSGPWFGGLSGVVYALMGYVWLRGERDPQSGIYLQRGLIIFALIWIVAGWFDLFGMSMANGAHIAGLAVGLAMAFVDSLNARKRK

For orientation: IC50 means the concentration that inhibits the measured activity by half. With `CC[C@H](C)[C@H](NC(C)=O)C(=O)N[C@@H](C)C(=O)N[C@@H](Cc1c[nH]cn1)C(=O)N[C@@H](C)C(=O)CCl` [AcIAHAcmk] (Ac-IAHA-CH2Cl), the IC50 amounted to 200 µM. Same read-out and setting: then `CC[C@H](C)[C@H](NC(C)=O)C(=O)N[C@@H](C)C(=O)N[C@H](C(=O)N[C@@H](C)C(=O)CCl)[C@@H](C)O` [AcIATAcmk, reference compound] (Ac-IATA-CH2Cl), with 213 µM; and `CC[C@H](C)[C@H](NC(C)=O)C(=O)N[C@@H](CCCNC(=N)N)C(=O)N[C@H](C(=O)N[C@@H](C)C(=O)CCl)[C@@H](C)O` [AcIRTAcmk] (Ac-IRTA-CH2Cl), with 84 µM; and `CC(=O)N[C@@H](CCCNC(=N)N)C(=O)N[C@H](C(=O)N[C@@H](CCCNC(=N)N)C(=O)N[C@@H](Cc1c[nH]cn1)C(=O)N[C@@H](C)C(=O)CCl)C(C)C` [AcRVRHAcmk] (Ac-RVRHA-CH2Cl), with 8 µM. The same measure, in the same setting: next, `CC(=O)N[C@H](C(=O)N[C@@H](C)C(=O)N[C@H](C(=O)N[C@@H](C)C(=O)CCl)[C@@H](C)O)C(C)C` [AcVATAcmk] (Ac-VATA-CH2Cl): 450 µM. Turning to `CC(=O)N[C@H](C(=O)N[C@@H](CCCNC(=N)N)C(=O)N[C@@H](Cc1c[nH]cn1)C(=O)N[C@@H](C)C(=O)CCl)C(C)C` [AcVRHAcmk] (Ac-VRHA-CH2Cl), the IC50 was found to be 27 µM. In the case of `CC(=O)N[C@@H](CCCNC(=N)N)C(=O)N[C@H](C(=O)N[C@@H](CCCNC(=N)N)C(=O)N[C@@H](Cc1c[nH]cn1)C(=O)N[C@@H](C)C(=O)NS(C)(=O)=O)C(C)C` [acylsulfonamide, AcRVRHA-acylsulfonamide] (Ac-RVRH-X3), the IC50 was over 1000 µM. As to `CC(=O)N[C@@H](CCCNC(=N)N)C(=O)N[C@H](C(=O)N[C@@H](CCCNC(=N)N)C(=O)N[C@@H](Cc1c[nH]cn1)C(=O)N[C@@H](C)B(O)O)C(C)C` [boronate, AcRVRHA-boronate] (Ac-RVRH-boroAla), the IC50 came to 8 µM. The same measure, in the same setting: then `CC(=O)N[C@H](C(=O)N[C@@H](CCCNC(=N)N)C(=O)N[C@@H](Cc1c[nH]cn1)C(=O)N[C@@H](C)C(=O)C(=O)NCCc1ccccc1)C(C)C` [compound 12], with 0.55 µM. As to `CC(=O)N[C@@H](CCCNC(=N)N)C(=O)N[C@@H](Cc1c[nH]cn1)C(=O)N[C@@H](C)C(=O)C(=O)NCCc1ccccc1` [compound 13, Ac-RHA-CONH-phenylethyl], the IC50 turned out to be 9 µM. Also, where the note is “ratio of apparent IC50 values”, the “fold decrease in potency compared with the parent compound 9” value (“fold decrease in potency” for short) is given as about 20 fold. `CC(=O)N[C@@H](Cc1c[nH]cn1)C(=O)N[C@@H](C)C(=O)C(=O)NCCc1ccccc1` [compound 14]: the IC50 was about 65 µM. In addition, the “fold decrease in potency” value (ratio of apparent IC50 values) is about 150 fold. Turning to `CC(=O)N[C@@H](C)C(=O)C(=O)NCCc1ccccc1` [compound 15, Ac-A-CONH-phenylethyl], the IC50 was over 1000 µM. Further, under “ratio of apparent IC50 values”, the “fold decrease in potency” value was ~2,250 fold. As for `CC(=O)N[C@@H](CCCNC(=N)N)C(=O)N[C@H](C(=O)N[C@@H](CCCNC(=N)N)C(=O)N[C@@H](Cc1c[nH]cn1)C(=O)N[C@@H](C)C(=O)c1nccs1)C(C)C` [thiazolylketone, AcRVRHA-thiazolylketone] (Ac-RVRH-X4), the IC50 was over 1000 µM. With `CC(=O)N[C@@H](CCCNC(=N)N)C(=O)N[C@H](C(=O)N[C@@H](CCCNC(=N)N)C(=O)N[C@@H](Cc1c[nH]cn1)C(=O)NC(C)C(=O)C(F)(F)F)C(C)C` (stereo partly shown) [trifluoromethylketone, AcRVRHA-trifluoromethylketone] (Ac-RVRH[ξA]-CF3), the concentration for half-maximal inhibition (IC50) was over 1000 µM. Regarding “Ac-RVRHA-NH2 [compound 1, AcRVRHA-CONH2]”, the IC50 was found to be 203 µM. In addition, where the note is “ratio of apparent IC50 values”, the “fold less potent than the peptidyl boronate” value is reported as “about 25 fold”.
